According to US20160067269A1, “Miltefosin Or Perifosin For Use In The Treatment of IBD” (ACADEMISCH MEDISCH CENTRUM, priority 2013, published 2016):

Experiments:
[1] = tested on: SCID mice (C.B-17/lcrHsd-Prkcd); experiment: experimental colitis transfer model (CD45RBHigh cells injected into SCID mice); format: in vivo, mouse; details: 50 mg/kg oral gavage twice a week
Procedure: To study the application of miltefosine as an anti-inflammatory drug, miltefosine was tested in the experimental colitis transfer model. In this model SCID mice, lacking T and B lymphocytes, are injected with only effector T lymphocytes (CD4^+CD45RB^High) omitting regulatory T lymphocytes (CD4^+CD45RB^Low). The absence of the letter causes, over a period of two months, the development of chronic inflammation of the colon.
Mouse CD4 positive lymphocytes were isolated from the spleen of normal mice (Balb/c OlaHsd). The spleen was removed, forced through a cell strainer to obtain a single cell suspension. Erythrocytes were lysed by adding water, quickly followed by PBS. The remaining cells were enriched in CD4 positive cells by negative depletion using magnetic beads specific for B cell (anti-B220), macrophages (anti-Mac-1) and cytotoxic T lymphocytes (anti-CD8). The remaining cell were washed and labeled for CD4 (CD4-PerCP-Cy5) and CD45RB (CD45RB-FITC). Using a FACS sorter the cell were separated in CD4 cells expressing low levels of CD45RB (CD45RB^Low) and high levels of CD45RB (CD45RB^High).
To induce colitis, SCID mice (C.B-17/lcrHsd-Prkcd) were injected with 5·10^5 CD45RB^High cells.
The mice were divided in three groups, each group containing 10 mice. […] Group two and three both received only CD45RB^High cells and developed colitis. Only group three received miltefosine (50 mg/kg) via oral gavage. Treatment started two weeks after the start of the experiment and was given twice a week until the end of the experiment. The mice were weighted three times a week during the entire duration of the experiment.
Part of the colon of each mouse was embedded in paraffin, cut and stained with hematoxylin and eosin (HE). The pathology score takes in account epithelial cell hyperplasia, leukocyte infiltrations, loss of goblet cells, ulceration and cryptabscesses.

[2] = 50 mg/kg per treatment; reported in literature; cited from earlier work
human patients = details: high dosages; cited from earlier work

CCCCCCCCCCCCCCCCOP(=O)([O-])OCC[N+](C)(C)C [miltefosine, hexadecyl phosphocholine]
weight loss in two days time ([1]; after day 42): ten
average weight at the end of the experiment ([1]; between the groups): does not differ significantly
average weight of the group versus negative control group ([1]; till day 42): corresponded with the negative control group
effect on bodyweight [2]: can affect bodyweight negatively
side effects in human patients (human patients): nausea and vomiting
